Assay results from patent US10035799B2, “COMT inhibiting methods and compositions” (Lieber Institute for Brain Development, priority 2015, dated 2018).

The compounds below were run against T1, catechol-O-methyltransferase (COMT) (Homo sapiens, UniProt P21964) (assay: COMT inhibition assay (HTRF, production of S-adenosyl homocysteine)). Settings: recombinant human COMT, HTRF SAH production; MB-COMT or S-COMT not stated for Table 1.
T1 construct: M51A variant) was expressed in HEK 293F cells
T1 sequence (P21964 52-271 limits assumed): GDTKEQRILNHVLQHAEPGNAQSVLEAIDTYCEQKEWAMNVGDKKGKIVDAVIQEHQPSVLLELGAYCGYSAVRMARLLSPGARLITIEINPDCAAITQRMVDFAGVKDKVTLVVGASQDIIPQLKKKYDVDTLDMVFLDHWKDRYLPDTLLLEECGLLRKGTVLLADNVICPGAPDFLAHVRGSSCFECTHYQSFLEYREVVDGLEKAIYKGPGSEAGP
Type: biochemical
Procedure: The ability of compounds to inhibit the activity of catechol-O-methyltransferase (COMT) was determined by a homogenous time-resolved fluorescent (HTRF) assay (Lina et al, 2012; kit from CisBio, Codolet, France). This assay measures the production of S-adenosyl homocysteine (SAH) from the methyl donor S-adenosyl methionine. Recombinant human membrane bound COMT (MB-COMT; M51A variant) was expressed in HEK 293F cells using 293Fectin (Life Technologies, Gent, Belgium) and membranes prepared. The membranes were re-suspended in buffer (20 mM Tris/HCl pH 7; 10 mM glycerol; 2 mM MgCl2; 10 mM NaCl), aliquoted and stored at −80° C. Recombinant human soluble COMT(S-COMT), Va1158 variant and a hexa-His tag on the N-terminus, was purified using Ni-NTA chromatography, the His tag removed and stored in buffer as above.
For the human MB-COMT assay, membranes (62 ng/well) were incubated with SAM (20 μM final, CisBio) and dopamine (1.5 μM final; Sigma H8502, Diegem, Belgium) in the presence or absence of varying concentrations (typically 10 concentrations ranging from 10 μM to 0.1 nM) of compound for 40 min at 37° C. in 384-well microtitre plates (10 μl per well final volume). The reaction was terminated by the addition of acylation buffer and the amount of SAH produced determined according to manufacturer's instructions. Specific inhibition as that inhibited by a high concentration of tolcapone (10 μM; synthesised at UCB) and all experiments were validated using a control curve to tolcapone.
The human S-COMT assay was performed as above except that 0.15 ng enzyme/well was incubated with SAM (20 μM final) and dopamine (100 μM final) for 15 min at 37° C. and SAH production determined.
HTRF readings were performed using a Perkin Elmer Envision and results expressed as concentration of SAH produced using a standard curve. Results were analysed using non-linear regression to the 4-parameter logistic equation and pIC50 (−log 10 concentration of drug which inhibits enzyme activity/SAH production by 50%) determined.

Structure (SMILES) | Activity range (pIC50, COMT inhibition)
CN(Cc1ccccc1)S(=O)(=O)c1ccc(O)c2ncccc12 [Example 45, N-benzyl-8-hydroxy-N-methylquinoline-5-sulfonamide] | +++ (a pIC50 of above about 7)
CN1CCN(S(=O)(=O)c2ccc(O)c3ncccc23)CC1 [Example 60, 5-(4-methylpiperazin-1-yl)sulfonylquinolin-8-ol] | ++ (a pIC50 of from about great than 6 to 7)
O=S(=O)(c1ccc2ccccc2c1)c1ccc(O)c2ncccc12 [Example 12, 5-(2-naphthylsulfonyl)quinolin-8-ol] | +++ (a pIC50 of above about 7)
C[C@H]1CCCN1S(=O)(=O)c1cc(Cl)c(O)c2ncccc12 [Example 118, 7-chloro-5-[(2S)-2-methylpyrrolidin-1-yl]sulfonyl-quinolin-8-ol] | ++ (a pIC50 of from about great than 6 to 7)
Cc1cc(C)cc(S(=O)(=O)c2ccc(O)c3ncccc23)c1 [Example 4, 5-(3,5-dimethylphenyl)sulfonylquinolin-8-ol] | +++ (a pIC50 of above about 7)
O=S(=O)(c1cccc(C(F)(F)F)c1)c1ccc(O)c2ncccc12 [Example 13, 5-[3-(trifluoromethyl)phenyl]sulfonylquinolin-8-ol] | +++ (a pIC50 of above about 7)
O=S(=O)(c1ccc(O)c2ncccc12)N1CCN(c2nsc3ccccc23)CC1 [Example 98, 5-[4-(1,2-benzothiazol-3-yl)piperazin-1-yl]sulfonylquinolin-8-ol] | ++ (a pIC50 of from about great than 6 to 7)
O=S(=O)(c1ccc(O)c2ncccc12)N1CCCCC1c1ccccc1 (stereo not drawn) [Example 61, 5-[(2-phenyl-1-piperidyl)sulfonyl]quinolin-8-ol] | ++ (a pIC50 of from about great than 6 to 7)
O=S(=O)(c1cccc(-c2ccncc2)c1)c1ccc(O)c2ncccc12 [Example 23, 5-[3-(4-pyridyl)phenyl]sulfonylquinolin-8-ol] | +++ (a pIC50 of above about 7)
CC(C)(C)c1ccc(S(=O)(=O)c2ccc(O)c3ncccc23)cc1 [Example 5, 5-(4-tert-butylphenyl)sulfonylquinolin-8-ol] | +++ (a pIC50 of above about 7)
O=S(=O)(c1ccc(O)c2ncccc12)C1CCN(c2ccc(F)cc2)CC1 [Example 37, 5-[[1-(4-fluorophenyl)-4-piperidyl]sulfonyl]quinolin-8-ol] | ++ (a pIC50 of from about great than 6 to 7)
Cc1ccc(CS(=O)(=O)c2ccc(O)c3ncccc23)cc1 [Example 32, 5-(p-tolylmethylsulfonyl)quinolin-8-ol] | ++ (a pIC50 of from about great than 6 to 7)
O=S(=O)(c1cccc(-c2cccc3[nH]ncc23)c1)c1ccc(O)c2ncccc12 [Example 26, 5-[3-(1H-indazol-4-yl)phenyl]sulfonylquinolin-8-ol] | +++ (a pIC50 of above about 7)
C[C@@H](c1ccccc1)N(C)S(=O)(=O)c1ccc(O)c2ncccc12 [Example 51, 8-hydroxy-N-methyl-N-[(1S)-1-phenylethyl]quinoline-5-sulfonamide] | +++ (a pIC50 of above about 7)
COc1ccc(S(=O)(=O)c2ccc(O)c3ncccc23)cc1 [Example 18, 5-(4-methoxyphenyl)sulfonylquinolin-8-ol] | +++ (a pIC50 of above about 7)
O=S(=O)(c1cccc(-c2ccccc2)c1)c1ccc(O)c2ncccc12 [Example 6, 5-(3-phenylphenyl)sulfonylquinolin-8-ol] | +++ (a pIC50 of above about 7)
O=S(=O)(c1ccc(F)cc1)c1ccc(O)c2ncccc12 [Example 2, 5-(4-fluorophenyl)sulfonylquinolin-8-ol] | +++ (a pIC50 of above about 7)
CCS(=O)(=O)c1ccc(O)c2ncccc12 [Example 33, 5-ethylsulfonylquinolin-8-ol] | + (a pIC50 of from about 4.5 to 6)
O=S(=O)(c1ccc(O)c2ncccc12)N1CCN(c2ccccc2-c2ccccc2)CC1 [Example 92, 5-[4-(2-phenylphenyl)piperazin-1-yl]sulfonylquinolin-8-ol] | ++ (a pIC50 of from about great than 6 to 7)
CN(CCc1ccccc1)S(=O)(=O)c1ccc(O)c2ncccc12 [Example 48, 8-hydroxy-N-methyl-N-phenethyl-quinoline-5-sulfonamide] | +++ (a pIC50 of above about 7)

More lines, now with the values ahead:

Activity range (pIC50, COMT inhibition) | Structure (SMILES)
+++ (a pIC50 of above about 7) | O=S(=O)(c1ccc(O)c2ncccc12)N1CCCC(c2ccccc2)C1 (stereo not drawn) [Example 102, 5-[(3-phenyl-1-piperidyl)sulfonyl]quinolin-8-ol]
+ (a pIC50 of from about 4.5 to 6) | O=S(=O)(c1ccc(O)c2ncccc12)N1CCNCC1 [Example 104, 5-piperazin-1-ylsulfonylquinolin-8-ol]
+++ (a pIC50 of above about 7) | CN(Cc1cccnc1)S(=O)(=O)c1ccc(O)c2ncccc12 [Example 54, 8-hydroxy-N-methyl-N-(3-pyridylmethyl)quinoline-5-sulfonamide]
+ (a pIC50 of from about 4.5 to 6) | O=S(=O)(c1ccc(O)c2ncccc12)N1CCN(C(c2ccc(F)cc2)c2ccc(F)cc2)CC1 [Example 95, 5-[4-[bis(4-fluorophenyl)methyl]piperazin-1-yl]sulfonylquinolin-8-ol]
+++ (a pIC50 of above about 7) | O=S(=O)(c1ccc(O)c2ncccc12)N1C[C@@H](F)[C@H](F)C1 [Example 70, 5-[(3R,4R)-3,4-difluoropyrrolidin-1-yl]sulfonylquinolin-8-ol]
+++ (a pIC50 of above about 7) | CC(=O)C1(c2ccccc2)CCN(S(=O)(=O)c2ccc(O)c3ncccc23)CC1 [Example 86, 1-[1-[(8-hydroxy-5-quinolyl)sulfonyl]-4-phenyl-4-piperidyl]ethanone]
+++ (a pIC50 of above about 7) | O=S(=O)(c1ccc(O)c2ncccc12)N1CCc2cccnc2C1 [Example 67, 5-(6,8-dihydro-5H-1,7-naphthyridin-7-ylsulfonyl)quinolin-8-ol]
+++ (a pIC50 of above about 7) | O=C1NCN(c2ccccc2)C12CCN(S(=O)(=O)c1ccc(O)c3ncccc13)CC2 [Example 87, 8-[(8-hydroxy-5-quinolyl)sulfonyl]-1-phenyl-1,3,8-triazaspiro[4.5]decan-4-one]
+ (a pIC50 of from about 4.5 to 6) | C[C@H](c1ccccc1)N(C)S(=O)(=O)c1cc(Br)c(O)c2ncccc12 [Example 120, 7-bromo-8-hydroxy-N-methyl-N-[(1R)-1-phenylethyl]quinoline-5-sulfonamide]
+++ (a pIC50 of above about 7) | CN(Cc1cccc(Cl)c1)S(=O)(=O)c1ccc(O)c2ncccc12 [Example 53, N-[(3-chlorophenyl)methyl]-8-hydroxy-N-methyl-quinoline-5-sulfonamide]
+++ (a pIC50 of above about 7) | O=S(=O)(c1ccc(O)c2ncccc12)N1CCC(O)(c2ccccc2)CC1 [Example 83, 5-[(4-hydroxy-4-phenyl-1-piperidyl)sulfonyl]quinolin-8-ol]
+++ (a pIC50 of above about 7) | CN(Cc1ccccc1F)S(=O)(=O)c1ccc(O)c2ncccc12 [Example 52, N-[(2-fluorophenyl)methyl]-8-hydroxy-N-methyl-quinoline-5-sulfonamide]
+++ (a pIC50 of above about 7) | O=S(=O)(c1cc(F)c(O)c2ncccc12)N1CCCC1 [Example 113, 7-fluoro-5-pyrrolidin-1-ylsulfonyl-quinolin-8-ol]
+++ (a pIC50 of above about 7) | Cc1ccccc1C1CCCN1S(=O)(=O)c1ccc(O)c2ncccc12 (stereo not drawn) [Example 71, 5-[2-(o-tolyl)pyrrolidin-1-yl]sulfonylquinolin-8-ol]
+++ (a pIC50 of above about 7) | Cc1cc(S(=O)(=O)N2CCCC2)c2cccnc2c1O [Example 111, 7-methyl-5-pyrrolidin-1-ylsulfonyl-quinolin-8-ol]
+++ (a pIC50 of above about 7) | O=S(=O)(c1ccc(O)c2ncccc12)N1CCC(c2ccc(F)cc2)C1 (stereo not drawn) [Example 62, 5-(3-(4-fluorophenyl)pyrrolidin-1-yl)sulfonylquinolin-8-ol]
